Laboratory results reported in patent US5776929A, “Benzodiazepine derivative” (Shionogi & Co., Ltd., priority 1993, dated 1998).

Legend:
gastric acid secretion = experiment: Inhibitory effect on gastric acid secretion by Schild method (pentagastrin-stimulated); format: in vivo, rat (male Sprague Dawley); conditions: intraduodenal, rat, read-out: Inhibitory Effect on acid secretion (Schild method), percent inhibition
From the text: Evaluation of Inhibitory Effect on Gastric Acid Secretion by Schild Method
Twenty four hour starved (ad libitum for water) male Sprague Dawley rats (8-week-old) were anesthetized with urethane (1.5 g/kg S.C.) and kept breathing with esophagus cannulas. After laparotomy, esophagus cannulas were inserted orally up to proventriculus and ligated around gastric cardiac. Perfusion cannulas were inserted from duodenum into stomach and ligated around pylorus. Another cannulas were placed into duodenum and ligated for administration of drug. After sutra of abdomen, stomach was perfused via the esophagus cannulas with physiological saline (37° C.) while collecting perfusate for a 15 min interval. The perfusate was subjected to titration with 0.001 N NaOH solution to determine the acidity. When the basal acid secretion became stable, pentagastrin ([…]) was administered in a sustained manner via common carotid vein for about 90 min until the acid secretion reached approximately the highest level, when a test compound (0.5% M.C. suspension) was administered into duodenum through cannulas. The perfusate was collected for a 15 min interval to monitor the acid secretion for 90 min. The percent inhibition was calculated as follows:
Percent inhibition (%)=100×(A-B)/(C-B)
A: the minimum value of total acidity observed after the administration of a test compound;
B: the total acidity obtained immediately before the administration of pentagastrin; and
C: the total acidity obtained immediately before the administration of a test compound.

CCK-A receptor = biological target: T1, CCK-A receptor (Mus musculus, UniProt O08786); experiment: CCK-A receptor antagonism, displacement of [3H]CCK-8, pancreas crude membrane; format: binding, mouse (male ddY); conditions: mouse pancreas membrane, [3H]CCK-8 1 nM, 90 min, 25 °C; read-out: Receptor CCK-A (IC50)
T1 construct: crude membrane specimen from mouse pancreas; from tissue; host or cells: pancreas of male ddY mice, crude membranes
T1 sequence (O08786 1-436): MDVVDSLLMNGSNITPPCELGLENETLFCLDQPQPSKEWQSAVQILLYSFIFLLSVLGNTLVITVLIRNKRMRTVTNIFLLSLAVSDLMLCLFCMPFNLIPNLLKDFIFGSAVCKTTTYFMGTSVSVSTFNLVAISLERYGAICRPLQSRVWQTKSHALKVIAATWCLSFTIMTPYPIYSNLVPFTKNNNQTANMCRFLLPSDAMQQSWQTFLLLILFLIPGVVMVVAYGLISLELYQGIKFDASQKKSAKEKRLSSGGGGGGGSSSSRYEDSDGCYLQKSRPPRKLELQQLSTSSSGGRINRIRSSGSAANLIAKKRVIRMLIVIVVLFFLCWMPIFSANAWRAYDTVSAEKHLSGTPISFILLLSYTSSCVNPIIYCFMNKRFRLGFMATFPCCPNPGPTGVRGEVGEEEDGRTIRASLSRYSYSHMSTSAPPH
Experimental: (§1) Male Hartley guinea pig (450-600 g) or male ddY mouse (24-30 g) were used.
(§2) (2) CCK-A Receptor Antagonism and CCK-B Receptor Antagonism
(§3) Preparation of CCK receptor preparations
(§4) Male ddY mice (24 to 30 g) were killed by decapitation and cerebral cortex (CCK-B) and pancreas (CCK-A) were extracted immediately. Each of cerebral cortex and pancreas was mixed with 50 mM Tris-HCl buffer (pH 7.4) and homogenized with a teflon-glass homogenizer and polytron homogenizer to obtain crude membrane specimens.
(§5) Preparation of test compounds and procedures of displacing assay A 1M solution of a compound to be tested in DMSO is prepared and diluted with 50% DMSO to obtain a ten-fold dilution series.
(§6) The reaction is initiated by the addition of crude membrane specimen to solutions of different concentration each containing [^3 H]CCk-8 (final concentration, 1 nM). The mixture is incubated for 90 min at 25° C., filtered through glass filter with aspiration and washed with a cooled 50 mM Tris buffer. After the addition of Aquazol-2 cocktail the radioactivity is counted. The same procedure was repeated using 50% DMSO solution or Ceruletide (final concentration, 1 μM) instead of a solution of test compound so as to obtain the control value regarding total binding or the value regarding non-specific binding, respectively. […]
(§7) specific binding of control=total binding (cpm)-non-specific binding (cpm); and specific binding of test compound=[…]-non-specific binding (cpm).

CCK-B receptor = biological target: T2, CCK-B receptor (Mus musculus, UniProt P56481); experiment: CCK-B receptor antagonism, displacement of [3H]CCK-8, cerebral cortex crude membrane; format: binding, mouse (male ddY); conditions: mouse cerebral cortex membrane, [3H]CCK-8 1 nM, 90 min, 25 °C; read-out: Receptor CCK-B (IC50)
T2 construct: crude membrane specimen from mouse cerebral cortex; from tissue; host or cells: cerebral cortex of male ddY mice, crude membranes
T2 sequence (P56481 1-453): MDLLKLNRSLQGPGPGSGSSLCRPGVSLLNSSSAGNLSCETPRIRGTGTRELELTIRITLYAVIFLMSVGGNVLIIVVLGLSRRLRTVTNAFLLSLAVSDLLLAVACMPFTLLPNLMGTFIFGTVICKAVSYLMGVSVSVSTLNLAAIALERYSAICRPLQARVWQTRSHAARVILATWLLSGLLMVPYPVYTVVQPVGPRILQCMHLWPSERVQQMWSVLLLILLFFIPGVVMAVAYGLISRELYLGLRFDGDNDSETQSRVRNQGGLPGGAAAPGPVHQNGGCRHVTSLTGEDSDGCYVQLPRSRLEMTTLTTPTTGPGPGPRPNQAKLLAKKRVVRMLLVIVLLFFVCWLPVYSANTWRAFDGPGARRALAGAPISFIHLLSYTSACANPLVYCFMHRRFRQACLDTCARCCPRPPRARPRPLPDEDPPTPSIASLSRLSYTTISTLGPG
Experimental: as §1, §2, §3, §4, §5, §6, §7

gastrin receptor = biological target: T3, gastrin receptor (Cavia porcellus, UniProt H0VZC5); experiment: Gastrin receptor antagonism, displacement of 125I-labeled gastrin, gastric (fundic) gland cells; format: binding, guinea pig (male Hartley); conditions: guinea pig gastric glands, 125I-gastrin 0.2 nM, 30 min, 25 °C; read-out: Receptor Gastrin (IC50)
T3 construct: stomach was extracted from each animal immediately, from which gastric glands were prepared; from tissue; host or cells: gastric (fundic) glands of male Hartley guinea pigs
T3 sequence (H0VZC5 1-426): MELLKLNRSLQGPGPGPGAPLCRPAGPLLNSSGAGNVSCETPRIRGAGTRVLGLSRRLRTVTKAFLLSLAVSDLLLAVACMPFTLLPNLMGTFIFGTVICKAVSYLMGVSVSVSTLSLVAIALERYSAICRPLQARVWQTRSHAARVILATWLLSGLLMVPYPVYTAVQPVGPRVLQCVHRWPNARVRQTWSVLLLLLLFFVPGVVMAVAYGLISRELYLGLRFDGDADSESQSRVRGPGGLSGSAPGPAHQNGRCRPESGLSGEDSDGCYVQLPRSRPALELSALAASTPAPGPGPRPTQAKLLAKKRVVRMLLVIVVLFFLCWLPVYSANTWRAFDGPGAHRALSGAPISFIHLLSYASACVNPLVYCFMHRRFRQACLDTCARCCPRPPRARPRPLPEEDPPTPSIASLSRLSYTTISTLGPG
Experimental: as §1
(1) Gastrin Receptor Antagonism
Preparation of gastric glands:
Male Hartley guinea pigs (450-600 g) were killed by bleeding and stomach was extracted from each animal immediately, from which gastric glands were prepared.
Preparation of test compounds and procedures of displacing assay
A 1M solution of a compound to be tested in DMSO is prepared and diluted with 50% DMSO to obtain a ten-fold dilution series.
The mixture is incubated for 30 min at 25° C., centrifuged at 2000 rpm for 5 min and the supernatant is removed by aspiration. To the pellet is added ice-cooled incubation buffer and mixed gently, followed by an immediate centrifugation and removal of the supernatant by aspiration. The radioactivity is counted on gamma counter. The same procedure was repeated using 50% DMSO solution or human gastrin I (final concentration, 2 μM) instead of a solution of test compound so as to obtain the control value regarding total binding or the value regarding non-specific binding, respectively. […]
as §7

| Structure (SMILES) | inhibition in vivo at 0.3 mg/kg (gastric acid secretion) | IC50 (CCK-A receptor) | IC50 (CCK-B receptor) | IC50 (gastrin receptor) | inhibition in vivo at 0.1 mg/kg (gastric acid secretion; 0.1 mg/kg) | inhibition in vivo at 0.5 mg/kg (gastric acid secretion; 0.5 mg/kg) |
| --- | --- | --- | --- | --- | --- | --- |
| CCOC(=O)CSc1cccc(NC(=O)NC2C(=O)N(CC(=O)C3CC3)c3ccccc3N(CC(=O)C3CC3)C2=O)c1 [Compound 17-viii, 1,5-Bis-(cyclopropylcarbonylmethyl)-3-(N'-(m-(carboethoxymethylthio)phenyl)ureido)-1H-1,5-benzodiazepine-2,4(3H,5H)-dione] | 76% | 0.46 µM | 0.006 µM | 0.002 µM |  |  |
| O=C(Nc1cccc(-c2nc(=O)o[nH]2)c1)NC1C(=O)N(CC(=O)C2CC2)c2ccccc2N(CC(=O)C2CC2)C1=O [Compound 17-x, 1,5-Bis-(cyclopropylcarbonylmethyl)-3-(N'-(m-(5-keto-1,2,4-oxadiazol-3-yl)phenyl)ureido)-1H-1,5-benzodiazepine-2,4(3H,5H)-dione] | 70% | 0.36 µM | 0.003 µM | 0.001 µM |  |  |
| CC(=O)NS(=O)(=O)c1cccc(NC(=O)NC2C(=O)N(CC(=O)C3CC3)c3ccccc3N(CC(=O)C3CC3)C2=O)c1 [Compound 17-xi, 1,5-Bis-(cyclopropylcarbonylmethyl)-3-(N'-(m-(acetylsulfamoyl)phenyl)ureido)-1H-1,5-benzodiazepine-2,4(3H,5H)-dione] | 39% | > 10 µM | 0.115 µM | 0.006 µM |  |  |
| COC(=O)Cc1cccc(NC(=O)NC2C(=O)N(CC(=O)C3CC3)c3ccccc3N(CC(=O)C3CC3)C2=O)c1 [Compound 17-xii, 1,5-Bis-(cyclopropylcarbonylmethyl)-3-(N'-(m-(carbomethoxymethyl)phenyl)ureido)-1H-1,5-benzodiazepine-2,4(3H,5H)-dione] | 48% | 2.5 µM | 0.048 µM | 0.015 µM |  |  |
| O=C(O)Cc1cccc(NC(=O)NC2C(=O)N(CC(=O)C3CC3)c3ccccc3N(CC(=O)C3CC3)C2=O)c1 [Compound 17-xiii, 1,5-Bis-(cyclopropylcarbonylmethyl)-3-(N'-(m-(carbomethyl)phenyl)ureido)-1H-1,5-benzodiazepine-2,4(3H,5H)-dione] | 21% | 4.8 µM | 0.007 µM | 0.002 µM |  |  |
| O=C(Nc1cccc(SCc2nnn[nH]2)c1)NC1C(=O)N(CC(=O)C2CC2)c2ccccc2N(CC(=O)C2CC2)C1=O [Compound 17-xvii] |  | 1.3 µM | 0.001 µM | < 0.001 µM | 30% |  |
| O=C(Nc1cccc(-c2nnn[nH]2)c1)NC1C(=O)N(CC(=O)N2CCCC2)c2ccccc2N(CC(=O)N2CCCC2)C1=O [Compound 18-iv] | 65% | 3.6 µM | 0.038 µM | 0.004 µM |  |  |
| O=C(O)Cc1cccc(NC(=O)NC2C(=O)N(CC(=O)N3CCCC3)c3ccccc3N(CC(=O)N3CCCC3)C2=O)c1 [Compound 18-xiii, 1,5-Bis-(pyrrolidinocarbonylmethyl)-3-(N'-(m-(carboxymethyl)phenyl)ureido)-1H-1,5-benzodiazepine-2,4(3H,5H)-dione] | 26% | 10.5 µM | 0.029 µM | 0.007 µM |  |  |
| O=C(Nc1cccc(-c2nnn[nH]2)c1)NC1C(=O)N(CC2CC2)c2ccccc2N(CC2CC2)C1=O [Compound 19-iv, 1,5-Bis-(cyclopropylmethyl)-3-(N'-(m-tetrazolylphenyl)ureido)-1H-1,5-benzodiazepine-2,4(3H,5H)-dione] |  | 2.6 µM | 0.026 µM | 0.006 µM |  | 58% |
| O=C(Nc1cccc(-c2nnn[nH]2)c1)NC1C(=O)N(CC(=O)c2cccs2)c2ccccc2N(CC(=O)c2cccs2)C1=O [Compound 20-iv, 1,5-Bis-(thienylcarbonylmethyl)-3-(N'-(m-tetrazolylphenyl)ureido)-1H-1,5-benzodiazepine-2,4(3H,5H)-dione] | 65% | 0.38 µM | 0.003 µM | 0.002 µM |  |  |
